Molecular target: T1, pig odorant-binding protein (pOBP) (Sus scrofa, UniProt P81245)
T1 construct: recombinant pOBP, GST tag removed by thrombin; monomer of 157 amino acids
T1 sequence (P81245 1-157): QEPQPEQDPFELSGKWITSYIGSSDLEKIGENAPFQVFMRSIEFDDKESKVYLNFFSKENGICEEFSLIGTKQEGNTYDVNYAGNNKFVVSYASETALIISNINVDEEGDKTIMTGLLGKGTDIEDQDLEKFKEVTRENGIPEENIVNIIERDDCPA
Assay: competitive FRET displacement of 1-AMA; also impedance (EIS) with immobilised pOBP

C=CC(O)CCCCC (stereo not shown) [1-octen-3-ol]
Kd: 18.5 mM
